According to US8168651B2, “Protein kinase modulators” (Cylene Pharmaceuticals, Inc., priority 2008, dated 2012):
Values belong to the compound of their own block, whether it stands above or below them.

Columns and labels:
Assay in all cases: Standardized radiometric kinase assays, percentage of activity at 0.5 μM;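 note: Read-out is ³³P-labelled substrate protein phosphorylated by each kinase, captured on filters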
[1] = target: each individual kinase of the panel (Homo sapiens, UniProt O14965); conditions: for % Activity: Aurora-A(h)
[2] = target: each individual kinase of the panel (Homo sapiens, UniProt O60285); conditions: for % Activity: ARK5(h)
[3] = target: each individual kinase of the panel (Homo sapiens, UniProt O60674); conditions: for % Activity: JAK2(h)
[4] = target: each individual kinase of the panel (Homo sapiens, UniProt O75676); conditions: for % Activity: MSK2(h)
[5] = target: each individual kinase of the panel (Homo sapiens, UniProt P00519); conditions: for % Activity: Abl(h)
[6] = target: each individual kinase of the panel (Homo sapiens, UniProt P00533, L861Q); conditions: for % Activity: EGFR(L861Q)(h)
[7] = target: each individual kinase of the panel (Homo sapiens, UniProt P04049); conditions: for % Activity: c-RAF(h)
[8] = target: each individual kinase of the panel (Homo sapiens, UniProt P06213); conditions: for % Activity: IR(h)
[9] = target: each individual kinase of the panel (Homo sapiens, UniProt P06239); conditions: for % Activity: Lck(h)
[10] = target: each individual kinase of the panel (Homo sapiens, UniProt P06241); conditions: for % Activity: Fyn(h)
[11] = target: each individual kinase of the panel (Homo sapiens, UniProt P06493); conditions: for % Activity: CDK1/cyclinB(h)
[12] = target: each individual kinase of the panel (Homo sapiens, UniProt P09619); conditions: for % Activity: PDGFRβ(h)
[13] = target: each individual kinase of the panel (Homo sapiens, UniProt P10721, V560G); conditions: for % Activity: cKit(V560G)(h)
[14] = target: each individual kinase of the panel (Homo sapiens, UniProt P11309); conditions: for % Activity: Pim-1(h)
[15] = target: each individual kinase of the panel (Homo sapiens, UniProt P17612); conditions: for % Activity: PKA(h)
[16] = target: each individual kinase of the panel (Homo sapiens, UniProt P35968); conditions: for % Activity: KDR(h)
[17] = target: each individual kinase of the panel (Homo sapiens, UniProt P42345); conditions: for % Activity: mTOR(h)
[18] = target: each individual kinase of the panel (Homo sapiens, UniProt P50613); conditions: for % Activity: CDK7/cyclinH/MAT1(h)
[19] = target: each individual kinase of the panel (Homo sapiens, UniProt P68400); conditions: for % Activity: CK2(h)
[20] = target: each individual kinase of the panel (Homo sapiens, UniProt P80192); conditions: for % Activity: MLK1(h)
[21] = target: each individual kinase of the panel (Homo sapiens, UniProt Q02750); conditions: for % Activity: MEK1(h)
[22] = target: each individual kinase of the panel (Homo sapiens, UniProt Q04759); conditions: for % Activity: PKCθ(h)
[23] = target: each individual kinase of the panel (Homo sapiens, UniProt Q14012); conditions: for % Activity: CaMKI(h)
[24] = target: each individual kinase of the panel (Homo sapiens, UniProt Q15303); conditions: for % Activity: ErbB4(h)
[25] = target: each individual kinase of the panel (Homo sapiens, UniProt Q15349); conditions: for % Activity: Rsk3(h)
[26] = target: each individual kinase of the panel (Homo sapiens, UniProt Q8IW41); conditions: for % Activity: PRAK(h)
[27] = target: each individual kinase of the panel (Homo sapiens, UniProt Q92630); conditions: for % Activity: DYRK2(h)
[28] = target: each individual kinase of the panel (Homo sapiens, UniProt Q9BZL6); conditions: for % Activity: PKD2(h)
[29] = target: each individual kinase of the panel (Homo sapiens, UniProt Q9HBH9); conditions: for % Activity: Mnk2(h)

Sequence of each individual kinase of the panel (Homo sapiens, UniProt P50613) (P50613 2-346 limits assumed): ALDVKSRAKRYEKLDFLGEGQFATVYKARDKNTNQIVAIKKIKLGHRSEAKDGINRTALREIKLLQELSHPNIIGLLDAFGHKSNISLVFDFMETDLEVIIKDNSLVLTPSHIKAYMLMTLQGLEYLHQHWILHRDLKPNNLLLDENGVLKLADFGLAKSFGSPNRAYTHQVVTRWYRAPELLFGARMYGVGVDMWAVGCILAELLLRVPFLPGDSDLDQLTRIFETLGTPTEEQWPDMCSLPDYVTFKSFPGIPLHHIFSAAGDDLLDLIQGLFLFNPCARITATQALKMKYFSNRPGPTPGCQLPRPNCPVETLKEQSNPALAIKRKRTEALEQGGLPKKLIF
Sequence of each individual kinase of the panel (Homo sapiens, UniProt P10721, V560G) (P10721 26-976 V560G limits assumed): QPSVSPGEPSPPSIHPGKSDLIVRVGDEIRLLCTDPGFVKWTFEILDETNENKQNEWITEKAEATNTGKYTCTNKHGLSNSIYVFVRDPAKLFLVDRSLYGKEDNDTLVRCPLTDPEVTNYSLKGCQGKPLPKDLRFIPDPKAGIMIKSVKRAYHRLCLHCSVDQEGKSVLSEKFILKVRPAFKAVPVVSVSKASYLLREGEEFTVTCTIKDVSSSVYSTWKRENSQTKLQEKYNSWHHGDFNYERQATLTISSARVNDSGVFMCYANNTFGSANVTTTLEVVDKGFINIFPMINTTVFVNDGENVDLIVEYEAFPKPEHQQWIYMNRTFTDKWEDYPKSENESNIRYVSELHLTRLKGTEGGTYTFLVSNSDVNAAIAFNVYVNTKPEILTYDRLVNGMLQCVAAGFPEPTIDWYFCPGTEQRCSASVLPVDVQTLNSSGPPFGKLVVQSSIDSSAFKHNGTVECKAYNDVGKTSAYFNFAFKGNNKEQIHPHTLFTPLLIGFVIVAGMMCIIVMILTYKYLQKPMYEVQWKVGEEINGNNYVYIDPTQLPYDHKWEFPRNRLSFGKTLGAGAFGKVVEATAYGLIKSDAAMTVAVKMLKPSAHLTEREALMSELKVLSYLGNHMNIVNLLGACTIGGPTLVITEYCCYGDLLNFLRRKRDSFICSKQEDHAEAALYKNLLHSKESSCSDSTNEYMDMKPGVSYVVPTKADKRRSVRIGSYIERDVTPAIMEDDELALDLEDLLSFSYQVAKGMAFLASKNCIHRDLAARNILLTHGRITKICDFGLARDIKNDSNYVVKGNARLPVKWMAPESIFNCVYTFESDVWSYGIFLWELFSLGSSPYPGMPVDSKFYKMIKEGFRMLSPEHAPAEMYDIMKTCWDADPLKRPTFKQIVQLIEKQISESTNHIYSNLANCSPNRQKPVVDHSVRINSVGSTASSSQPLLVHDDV
Sequence of each individual kinase of the panel (Homo sapiens, UniProt P09619) (P09619 33-1106 limits assumed): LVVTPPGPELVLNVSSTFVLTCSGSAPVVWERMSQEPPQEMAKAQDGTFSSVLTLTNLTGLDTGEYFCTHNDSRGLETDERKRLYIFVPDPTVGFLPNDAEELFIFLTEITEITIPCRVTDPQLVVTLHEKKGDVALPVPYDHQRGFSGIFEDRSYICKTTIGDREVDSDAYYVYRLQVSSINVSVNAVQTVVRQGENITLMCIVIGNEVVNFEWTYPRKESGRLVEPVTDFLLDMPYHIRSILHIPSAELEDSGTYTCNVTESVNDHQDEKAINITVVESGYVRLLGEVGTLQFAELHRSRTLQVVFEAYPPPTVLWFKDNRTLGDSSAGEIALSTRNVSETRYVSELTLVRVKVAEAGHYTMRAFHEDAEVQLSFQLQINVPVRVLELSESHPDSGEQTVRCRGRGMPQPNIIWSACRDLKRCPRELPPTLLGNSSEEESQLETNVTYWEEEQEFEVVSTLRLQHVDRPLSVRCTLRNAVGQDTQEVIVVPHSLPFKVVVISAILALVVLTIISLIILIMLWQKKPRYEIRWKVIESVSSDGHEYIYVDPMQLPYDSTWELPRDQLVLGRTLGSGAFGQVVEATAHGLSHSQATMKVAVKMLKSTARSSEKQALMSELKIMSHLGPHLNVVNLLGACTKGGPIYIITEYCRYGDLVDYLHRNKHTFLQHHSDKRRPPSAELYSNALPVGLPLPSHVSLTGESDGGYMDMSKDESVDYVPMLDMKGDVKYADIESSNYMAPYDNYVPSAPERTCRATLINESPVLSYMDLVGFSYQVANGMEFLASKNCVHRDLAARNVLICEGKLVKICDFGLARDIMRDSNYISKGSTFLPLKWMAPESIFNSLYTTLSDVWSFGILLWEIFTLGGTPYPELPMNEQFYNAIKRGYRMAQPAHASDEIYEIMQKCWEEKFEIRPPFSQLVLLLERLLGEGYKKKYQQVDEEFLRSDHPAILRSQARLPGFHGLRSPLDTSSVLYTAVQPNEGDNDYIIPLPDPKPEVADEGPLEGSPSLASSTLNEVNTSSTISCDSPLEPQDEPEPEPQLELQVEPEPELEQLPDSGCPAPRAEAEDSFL
Sequence of each individual kinase of the panel (Homo sapiens, UniProt P06239) (P06239 2-509 limits assumed): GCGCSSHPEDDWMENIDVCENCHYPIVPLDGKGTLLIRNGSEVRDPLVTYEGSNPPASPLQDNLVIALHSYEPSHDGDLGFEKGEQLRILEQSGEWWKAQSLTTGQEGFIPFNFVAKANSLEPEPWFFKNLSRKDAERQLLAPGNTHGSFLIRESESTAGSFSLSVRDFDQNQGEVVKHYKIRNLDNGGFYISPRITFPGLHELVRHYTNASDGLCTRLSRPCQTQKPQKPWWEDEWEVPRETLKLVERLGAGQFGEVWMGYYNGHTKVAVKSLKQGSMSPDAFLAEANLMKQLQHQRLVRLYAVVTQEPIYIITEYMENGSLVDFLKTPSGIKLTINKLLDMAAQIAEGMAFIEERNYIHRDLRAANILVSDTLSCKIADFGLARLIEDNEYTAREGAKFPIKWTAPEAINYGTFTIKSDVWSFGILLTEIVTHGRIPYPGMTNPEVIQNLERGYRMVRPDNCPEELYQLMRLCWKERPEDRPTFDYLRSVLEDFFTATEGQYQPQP
Sequence of each individual kinase of the panel (Homo sapiens, UniProt P06213) (P06213 28-758 limits assumed): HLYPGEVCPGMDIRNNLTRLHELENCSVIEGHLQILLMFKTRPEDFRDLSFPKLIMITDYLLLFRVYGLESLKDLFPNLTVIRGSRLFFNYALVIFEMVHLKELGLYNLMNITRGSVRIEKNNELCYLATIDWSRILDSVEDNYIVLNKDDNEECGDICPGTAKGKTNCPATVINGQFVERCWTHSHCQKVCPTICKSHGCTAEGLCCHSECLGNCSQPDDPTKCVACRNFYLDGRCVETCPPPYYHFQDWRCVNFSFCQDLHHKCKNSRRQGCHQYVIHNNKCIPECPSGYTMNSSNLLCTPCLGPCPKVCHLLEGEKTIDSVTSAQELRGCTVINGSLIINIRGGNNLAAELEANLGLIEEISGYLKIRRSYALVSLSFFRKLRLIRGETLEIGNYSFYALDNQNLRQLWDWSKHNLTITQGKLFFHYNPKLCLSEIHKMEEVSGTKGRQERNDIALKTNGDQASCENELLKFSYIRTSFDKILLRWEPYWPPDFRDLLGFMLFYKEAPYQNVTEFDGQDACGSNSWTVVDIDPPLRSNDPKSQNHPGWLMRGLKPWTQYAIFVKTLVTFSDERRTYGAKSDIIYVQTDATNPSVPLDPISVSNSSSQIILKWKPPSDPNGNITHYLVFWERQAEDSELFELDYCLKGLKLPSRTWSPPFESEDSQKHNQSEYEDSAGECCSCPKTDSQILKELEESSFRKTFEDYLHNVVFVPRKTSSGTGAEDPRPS
Sequence of each individual kinase of the panel (Homo sapiens, UniProt P06213) (P06213 763-1382 limits assumed): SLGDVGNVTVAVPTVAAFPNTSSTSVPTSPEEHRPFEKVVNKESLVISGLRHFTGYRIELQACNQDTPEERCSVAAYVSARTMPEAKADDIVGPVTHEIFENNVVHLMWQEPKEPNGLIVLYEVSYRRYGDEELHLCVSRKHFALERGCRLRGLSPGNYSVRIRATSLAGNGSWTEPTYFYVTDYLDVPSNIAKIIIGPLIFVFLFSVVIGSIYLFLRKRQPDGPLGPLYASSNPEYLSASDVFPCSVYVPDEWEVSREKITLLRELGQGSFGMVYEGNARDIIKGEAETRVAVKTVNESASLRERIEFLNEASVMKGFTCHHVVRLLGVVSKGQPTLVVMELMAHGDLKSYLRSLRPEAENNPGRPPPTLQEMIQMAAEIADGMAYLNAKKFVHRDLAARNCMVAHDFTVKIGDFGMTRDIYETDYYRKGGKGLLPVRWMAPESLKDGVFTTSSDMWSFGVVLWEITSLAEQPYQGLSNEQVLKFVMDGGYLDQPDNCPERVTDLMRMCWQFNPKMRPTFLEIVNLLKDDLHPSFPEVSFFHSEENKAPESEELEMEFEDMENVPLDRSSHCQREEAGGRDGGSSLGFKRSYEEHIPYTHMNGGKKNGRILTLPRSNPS
Sequence of each individual kinase of the panel (Homo sapiens, UniProt P06241) (P06241 2-537 limits assumed): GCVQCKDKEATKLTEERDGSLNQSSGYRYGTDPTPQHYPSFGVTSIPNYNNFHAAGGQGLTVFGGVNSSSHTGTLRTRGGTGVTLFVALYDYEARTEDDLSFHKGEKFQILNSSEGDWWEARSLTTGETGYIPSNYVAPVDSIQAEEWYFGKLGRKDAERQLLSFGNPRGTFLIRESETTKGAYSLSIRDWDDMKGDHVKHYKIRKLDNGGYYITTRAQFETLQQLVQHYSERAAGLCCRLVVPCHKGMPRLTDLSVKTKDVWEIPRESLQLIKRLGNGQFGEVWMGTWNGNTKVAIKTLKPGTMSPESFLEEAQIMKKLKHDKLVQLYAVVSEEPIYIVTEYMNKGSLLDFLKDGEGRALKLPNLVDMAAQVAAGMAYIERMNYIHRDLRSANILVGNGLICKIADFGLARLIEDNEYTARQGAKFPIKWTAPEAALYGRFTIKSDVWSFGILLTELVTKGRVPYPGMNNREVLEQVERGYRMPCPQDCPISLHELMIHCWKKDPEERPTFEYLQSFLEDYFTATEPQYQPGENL

SMILES: C#Cc1cccc(Nc2nc3cc(C(=O)O)ccc3c3cncnc23)c1 [drawing 1135]
AURKA percentage of activity [1]: 6%
ARK5 percentage of activity [2]: −8%
JAK2 percentage of activity [3]: 1%
MSK2 percentage of activity [4]: 44%
ABL1 percentage of activity [5]: 9%
RAF1 percentage of activity [7]: 31%
INSR percentage of activity [8]: −5%
FYN percentage of activity [10]: −14%
CDK1/cyclinB percentage of activity [11]: 48%
PDGFRB percentage of activity [12]: −10%
cKit(V560G) percentage of activity [13]: −11%
PIM1 percentage of activity [14]: 73%
VEGFR2 percentage of activity [16]: 33%
mTOR percentage of activity [17]: 15%
CDK7/cyclinH/MAT1 percentage of activity [18]: 23%
MLK1 percentage of activity [20]: 20%
MEK1 percentage of activity [21]: −36%
PRKCT percentage of activity [22]: −11%
CAMK1 percentage of activity [23]: −4%
ERBB4 percentage of activity [24]: −26%
MAPKAPK5 percentage of activity [26]: 7%
DYRK2 percentage of activity [27]: 50%
PRKd_nM2 percentage of activity [28]: −7%

SMILES: C#Cc1cccc(Nc2nc3cc(C(=O)O)ccc3c3cnccc23)c1 [drawing 1137]
AURKA percentage of activity [1]: 3%
ARK5 percentage of activity [2]: 14%
JAK2 percentage of activity [3]: 38%
MSK2 percentage of activity [4]: 41%
ABL1 percentage of activity [5]: 20%
EGFR(L861Q) percentage of activity [6]: 59%
RAF1 percentage of activity [7]: 62%
INSR percentage of activity [8]: −7%
LCK percentage of activity [9]: 33%
FYN percentage of activity [10]: 18%
CDK1/cyclinB percentage of activity [11]: 84%
PDGFRB percentage of activity [12]: −2%
cKit(V560G) percentage of activity [13]: 69%
PIM1 percentage of activity [14]: 75%
PKA percentage of activity [15]: −9%
VEGFR2 percentage of activity [16]: 55%
CDK7/cyclinH/MAT1 percentage of activity [18]: 36%
MLK1 percentage of activity [20]: 21%
MEK1 percentage of activity [21]: 4%
PRKCT percentage of activity [22]: 10%
CAMK1 percentage of activity [23]: 1%
ERBB4 percentage of activity [24]: 17%
RPS6KA2 percentage of activity [25]: 59%
MAPKAPK5 percentage of activity [26]: 22%
DYRK2 percentage of activity [27]: 55%
PRKd_nM2 percentage of activity [28]: 0%
Mnk2 percentage of activity [29]: −2%

SMILES: NC(=O)c1ccc2c(c1)nc(Nc1cccc(Cl)c1)c1ccncc12 [drawing 1138]
AURKA percentage of activity [1]: 11%
ARK5 percentage of activity [2]: 5%
JAK2 percentage of activity [3]: −4%
MSK2 percentage of activity [4]: 9%
ABL1 percentage of activity [5]: 14%
EGFR(L861Q) percentage of activity [6]: 70%
RAF1 percentage of activity [7]: 62%
INSR percentage of activity [8]: 0%
LCK percentage of activity [9]: 79%
FYN percentage of activity [10]: 32%
CDK1/cyclinB percentage of activity [11]: 63%
PDGFRB percentage of activity [12]: 3%
cKit(V560G) percentage of activity [13]: 75%
PIM1 percentage of activity [14]: 18%
PKA percentage of activity [15]: −1%
VEGFR2 percentage of activity [16]: 15%
CDK7/cyclinH/MAT1 percentage of activity [18]: 57%
CK2 alpha 1 percentage of activity [19]: 84%
MLK1 percentage of activity [20]: 49%
MEK1 percentage of activity [21]: 8%
PRKCT percentage of activity [22]: 1%
CAMK1 percentage of activity [23]: 4%
ERBB4 percentage of activity [24]: 33%
MAPKAPK5 percentage of activity [26]: 22%
DYRK2 percentage of activity [27]: 82%
PRKd_nM2 percentage of activity [28]: 25%
Mnk2 percentage of activity [29]: 32%

More lines, now with the values ahead:

% Activity [1]: 43%
% Activity [2]: 39%
% Activity [3]: 39%
% Activity [4]: 51%
% Activity [5]: 87%
% Activity [6]: 60%
% Activity [7]: 66%
% Activity [8]: 112%
% Activity [9]: 21%
% Activity [10]: 49%
% Activity [11]: 37%
% Activity [12]: 94%
% Activity [13]: 38%
% Activity [14]: 1%
% Activity [15]: 97%
% Activity [16]: 43%
% Activity [17]: 99%
% Activity [18]: 50%
% Activity [19]: 58%
% Activity [20]: 24%
% Activity [21]: 72%
% Activity [22]: 39%
% Activity [23]: 90%
% Activity [24]: 77%
% Activity [25]: 7%
% Activity [26]: 97%
% Activity [27]: −4%
% Activity [28]: 86%
% Activity [29]: 54%
SMILES: Clc1ccccc1Nc1nc2c(-c3nnc[nH]3)cccc2c2cnccc12 [A]

% Activity [1]: 77%
% Activity [2]: 98%
% Activity [3]: 55%
% Activity [4]: 65%
% Activity [5]: 92%
% Activity [6]: 54%
% Activity [7]: 69%
% Activity [8]: 95%
% Activity [9]: 24%
% Activity [10]: 49%
% Activity [11]: 18%
% Activity [12]: 94%
% Activity [13]: 33%
% Activity [14]: 9%
% Activity [15]: 100%
% Activity [16]: 75%
% Activity [17]: 101%
% Activity [18]: 17%
% Activity [19]: 48%
% Activity [20]: 77%
% Activity [21]: 88%
% Activity [22]: 83%
% Activity [23]: 62%
% Activity [24]: 77%
% Activity [25]: 40%
% Activity [26]: 84%
% Activity [27]: 5%
% Activity [28]: 86%
% Activity [29]: 33%
SMILES: NC(=O)c1cccc2c1nc(Nc1cccc(Cl)c1)c1ccncc12 [B]
